These results are taken from patent US20250011725A1, “TISSUE-[…] CERAMIC TEMPLATE AND USES THEREOF” (Osteogene Bio Inc., priority 2023, published 2025).

Holding throughout (type): cell-based
Test [1] has as its system co-cultured osteoblast precursor MC3T3 and osteosarcoma cells. Briefly: survival index of co-cultured cells after doxorubicin, 2D static culture on culture plate without PCT. Conditions: 0.5 mg/ml doxorubicin. The source says:
(§1) FIG. 37 depicts comparison of survival index of co-cultured cells onto a culture plate for 2D static culture without a porous ceramic template (PCT), 3D static culture using a PCT, and 3D dynamic culture using a PCT after treated with doxorubicin (DOX: therapeutic drug) for designated time. In this example, osteoblast precursor MC3T3 with 2.5×10^5 cell population and osteosarcoma with 1×10^5 cell population are deployed onto a 12 well culture plate for the 2D static culture. 2.5×10^5 MC3T3 cell and 1×10^5 osteosarcoma are also seeded onto a PCT that is placed in a 12 well culture plate for the 3D static culture. For the 3D dynamic culture, 2.5×10^5 MC3T3 cell and 1×10^5 osteosarcoma were seeded onto a PCT and held for two days under static culture condition, then relocated into a culture column and subjected to dynamic culture with doxorubicin (therapeutic agent) using a peristaltic perfusion pump. […] In this regard, the 3D dynamic culture system is considered an effective alternative method of mimicking in vivo cancer model for performing a therapeutic agent test and/or screening.

Test [2] shares this test system. Kind of test: survival index of co-cultured cells after doxorubicin, 3D dynamic culture using a PCT (perfusion bioreactor). The source says: FIG. 33 depicts a bioreactor system suitable for performing a therapeutic agent treatment test according to embodiments of the present disclosure. Reference numeral 902 represents a co-cultured 3D cancer model platform 902 including a PCT 101 (such as the one resulting from the co-culturing discussed above in connection with FIGS. 32A and 32B). The 3D cancer model platform 902 is inserted into a culture column 903 for dynamic therapeutic agent treatment. The culture column 903 is connected with a medium vessel 904 that is filled with a medium in which a therapeutic agent 901 is dissolved. Afterwards, a dynamic therapeutic agent treatment is employed for up to, but not limited to, about seven days. In an exemplary embodiment, the therapeutic agent 901 includes Doxorubicin with a concentration of about 0.5 mg/ml. However, the present disclosure is suitable for cancer treatment with various therapeutic agents including but not limited to Cisplatin, Methotrexate, Ifosfamide, Actinomycin D, Bleomycin, Vincristine, Cyclophosphamide, Paclitaxel, Carboplatin, or a combination of two more of the foregoing agents. In an exemplary embodiment, a flow rate of the therapeutic agent 901 medium into the culture column 903 is about 5 ml/min for about five minutes per day. […]

Test [3] shares this test system. Briefly: survival index of co-cultured cells after doxorubicin, 3D static culture using a PCT. Conditions: 3D static culture on PCT, 0.5 mg/ml doxorubicin.
Text: as §1

For `COc1cccc2c1C(=O)c1c(O)c3c(c(O)c1C2=O)C[C@@](O)(C(=O)CO)C[C@@H]3O[C@H]1C[C@H](N)[C@H](O)[C@H](C)O1` [doxorubicin], the “survival index compared to control” value in test [1] and in test [3] was “significant reduction” throughout. For the same compound, the “reduction of survival index compared to control” value in test [2] (3D dynamic culture on PCT, 0.5 mg/ml doxorubicin, 5 ml/min flow rate for five minutes per day, three days) is “not significant”. For the same compound, the “cell survival index, 3D dynamic culture in comparison with 3D static culture” value in test [2] (after doxorubicin treatment) was “significantly higher”.
